Test results: patent publication US9272040B2, “5-CNAC as oral delivery agent for parathyroid hormone fragments” (Novartis AG, priority 2001, dated 2016)

Test: Primate administration: plasma hPTH by radioimmunoassay after oral capsule
Type: in vivo
Details: Table 2 versus Table 1, Rhesus monkey
Protocol: The capsules prepared in Example 1 are administered to Rhesus monkeys as follows: four monkeys in a group are each dosed with one capsule prepared as in Example 1 as follows:
The Rhesus monkeys fast overnight prior to dosing and are restrained in chairs fully conscious, for the duration of the study period. The capsules are orally administered via a gavage tube followed by 10 ml of water.
Blood samples are collected at 0, 0.25, 0.5, 0.75, 1, 1.5, 2, 3, 4, 5, and 6 hours after administration. Plasma hPTH levels are determined by radioimmunoassay. The primate plasma PTH results from each group of monkeys are averaged and the maximum mean plasma calculated.

## O=C(O)CCCCCCCNC(=O)c1cc(Cl)ccc1O [Capsule 5-CNAC, N-(5-chlorosalicyloyl)-8-aminocaprylic acid]
  effect of carrier on oral delivery of the hPTH fragment: significantly facilitates the oral delivery of the hPTH fragment
